Results reported in US5401726A, “2'methylidenepyrimidine nucleoside compounds, their use and method for production thereof” (Yoshitomi Pharaceutical Industries, Ltd., priority 1988, dated 1995).
In brackets after ≈: the same amount, converted by molar mass.

What was measured:
[1] = system: U937; human histiocytic leukemia; experiment: MTT cytotoxicity, in vitro cell growth, U937; format: cell-based; conditions: U-937, 72 hr, read-out: IC50 (concentration showing 50% cytotoxity)
Description: (§1) Effect of the compounds on in vitro cell growth of various tumor cell lines:
(§2) The assay of cytotoxicity is dependent on the cellular reduction of MTT [3'-(4,5-dimethylthiazol-2-yl)-2,5-diphenyltetrazolium bromide] by the mitochondrial dehydrogenase of viable cells to a blue formazan product which can be measured spectrophotometrically. Cell suspension, 100 μl, containing 10^4 tumor cells with or without test sample was incubated for 72 hr in 5% CO2 -95% air at 37° C. in 96 well microculture plates (Falcol 3072). The 10 μl of MTT (5 mg/ml) in saline was added to each culture well and incubated for 4 hr at 37° C. The formazan crystals were solubilized by the addition of 100 μl of 10% SDS/0.01N HCl to each well, and incubated for 24 hr at 37° C. The plates were then read at 570 nm on the plate reader. The percentage of cytotoxicity was calculated from the formula: [formula]
(§3) 2 '-Deoxy-2'-methylidene-5-fluorocytidine was dissolved in distilled water, and diluted in RPM1 1640 medium. Tumor cell lines were maintained in RPM1 1640 medium (Nissui Seiyaku Co., Ltd., Tokyo, Japan).
(§4) IC50 values gave the concentrations showing the 50% cytotoxity.

[2] = system: B16; mouse melanoma; experiment: MTT cytotoxicity, in vitro cell growth, B16; format: cell-based; conditions: 72 hr, read-out: IC50 (concentration showing 50% cytotoxity)
Description: as §1, §2, §3, §4

[3] = system: PC13; human lung large cell carcinoma; experiment: MTT cytotoxicity, in vitro cell growth, PC13; format: cell-based; conditions: PC-13, 72 hr, read-out: IC50 (concentration showing 50% cytotoxity)
Description: as §1, §2, §3, §4

[4] = solubility in saline at 25 mg/ml, room temperature; format: physicochemical
[5] = system: HL60; human promyelocytic leukemia; experiment: MTT cytotoxicity, in vitro cell growth, HL60; format: cell-based; conditions: HL-60, 72 hr, read-out: IC50 (concentration showing 50% cytotoxity)
Description: as §1, §2, §3, §4

[6] = system: MOLT4; human T cell leukemia; experiment: MTT cytotoxicity, in vitro cell growth, MOLT4; format: cell-based; conditions: MOLT-4, 72 hr, read-out: IC50 (concentration showing 50% cytotoxity)
Description: as §1, §2, §3, §4

[7] = system: CCRF-CEM; human T cell leukemia; experiment: MTT cytotoxicity, in vitro cell growth, CCRF-CEM; format: cell-based; conditions: 72 hr, read-out: IC50 (concentration showing 50% cytotoxity)
Description: as §1, §2, §3, §4

[8] = system: L1210/c; mouse leukemia; experiment: MTT cytotoxicity, in vitro cell growth, L1210/c; format: cell-based; conditions: 72 hr, read-out: IC50 (concentration showing 50% cytotoxity)
Description: as §1, §2, §3, §4

[9] = solubility (general statement); format: physicochemical; conditions: with respect to pharmaceutical production

solubility in saline [4]	solubility [9]	Compound	IC50 [1]	IC50 [2]	IC50 [3]	IC50 [5]	IC50 [6]	IC50 [7]	IC50 [8]
easily soluble	–	C=C1[C@H](n2cc(F)c(N)nc2=O)O[C@H](CO)[C@H]1O [Example 1, 2'-deoxy-2'-methylidene-5-fluorocytidine]	0.44 µg/mL (≈ 1.71 µM)	6.9 µg/mL (≈ 26.8 µM)	1 µg/mL (≈ 3.89 µM)	0.04 µg/mL (≈ 0.156 µM)	0.036 µg/mL (≈ 0.14 µM)	0.14 µg/mL (≈ 0.544 µM)	0.33 µg/mL (≈ 1.28 µM)
not soluble	inferior in solubility	C=C1[C@H](n2ccc(N)nc2=O)O[C@H](CO)[C@H]1O [2'-deoxy-2'-methylidenecytidine, reference compound]	–	–	–	–	–	–	–
